# Measured values taken from US20060019995A1, “2,3-dihydro-4(1H)-pyridone derivatives , method for production thereof and pharmaceutical composition comprising the same” (priority 2002, published 2006).
# Assays:
# [1] = tested on: social recognition (olfactory memory); test: Social recognition in the Wistar rat; type: in vivo; settings: intraperitoneal route, 3 mg/kg, second encounter after 2 hours
# From the text: Initially described in 1982 by THOR and HOLLOWAY (J. Comp. Physiol., 1982, 96, 1000-1006), the social recognition test has subsequently been proposed by various authors (DANTZER et al., Psychopharmacology, 1987, 91, 363-368; PER10 et al., Psycho-pharmacology, 1989, 97, 262-268) for studying the mnemocognitive effects of new compounds. The test is based on the natural expression of the olfactory memory of the rat and its natural tendency to forget and allows evaluation of memorisation, by recognition of a young congeneric animal, by an adult rat. A young rat (21 days), taken at random, is placed for 5 minutes in the cage housing an adult rat. With the aid of a video device, the experimenter observes the social recognition behaviour of the adult rat and measures its overall duration. The young rat is then removed from the adult rat's cage and is placed in its own cage until the second introduction. The adult rat is then given the compound under test (intraperitoneal route) and, after 2 hours, is again brought into the presence (5 minutes) of the young rat. The social recognition behaviour is then observed again and its duration measured.
# [2] = tested on: PBQ-induced abdominal cramps; test: Abdominal contractions induced by phenyl-p-benzoquinone (PBQ) in the NMRI mouse; type: in vivo; settings: IP, 20 mg/kg, PBQ at t=30 min, cramps counted t=35 to 45 min
# Method: Intraperitoneal administration of an alcoholic solution of PBQ causes abdominal cramps in the mouse (SIEGMUND et al., Proc. Soc. Exp. Biol., 1957, 95, 729-731). The cramps are characterised by repeated contractions of the abdominal musculature, accompanied by extension of the hind limbs. Most analgesics antagonise these abdominal cramps (COLLIER et al., Brit. J. Pharmacol. Chem., 1968, 32, 295-310). At t=0 min., the animals are weighed and the compound being studied is administered by the IP route. A group of control animals is given the solvent used for the compound. At t=30 min., an alcoholic solution of PBQ (0.2%) is administered by the IP route in a volume of 0.25 ml/mouse. Immediately after administration of the PBQ, the animals are placed in cylinders of plexiglass (L=19.5 cm; I.D.=5 cm). From t=35 min. to t=45 min., the animals' reaction is observed and the experimenter notes the total number of abdominal cramps per animal.
Compound,"T2 − T1 (s) ± sem, difference between recognition times of the 2 encounters [1] [s]",Inhibition (%) of the number of abdominal cramps measured in the control animals [2] [%]
"CC1CC(=O)C=C(c2cccs2)N1C(=O)OC(C)(C)C (stereo not shown) [Example 1, Tert-butyl 2-methyl-4-oxo-6-(2-thienyl)-3,4-dihydro-1(2H)-pyridinecarboxylate]",-17.4 ± 2.5,–
"CC1CC(=O)C=C(c2cccs2)N1 (stereo not shown) [Example 2, 2-Methyl-6-(2-thienyl)-2,3-dihydro-4(1H)-pyridone]",–,48
"CC1CC(=O)C=C(c2ccccc2)N1C(=O)OC(C)(C)C (stereo not shown) [Example 3, Tert-butyl 2-methyl-4-oxo-6-phenyl-3,4-dihydro-1(2H)-pyridine-carboxylate]",-25.3 ± 7.1,59
"CC1CC(=O)C=C(c2cccc(Cl)c2)N1 (stereo not shown) [Example 6, 6-(3-Chlorophenyl)-2-methyl-2,3-dihydro-4(1H)-pyridone]",-21.4 ± 5.1,48
"CC1CC(=O)C=C(c2ccc(Cl)nc2)N1 (stereo not shown) [Example 8, 6-(6-Chloro-3-pyridyl)-2-methyl-2,3-dihydro-4(1H)-pyridone]",-17.2 ± 4.6,–
